pEC50, pIC50: −log10 of the molar value. Read-outs that look alike come from different tables or passages of the source.
Test system: cancer cell lines from the cancer cell line encyclopedia (CCLE)
Assay: Cell line profiling (CLiP) proliferation experiment
Type: cell-based
Details: Homo sapiens; for pIC50: read-out: Crossing Point; for pEC50: read-out: Inflection Point
Protocol: Compound profiling experiment and data analysis was performed as previously described. Data was imported and plotted using the Tibco Spotfire DXP application. Lines were categorized as sensitive, intermediate and refractory as follows: Amax<-40 & Inflection Point <2 ~ Sensitive, Amax>-20 & Inflection Point >10 ~ Refractory, all else were called Intermediate. Cancer Cell line HG-U133 Plus 2 data was processed and normalized as described. […] Five sets of refractory cell lines were generated from the pool of refractory cell lines trying to match the lineage composition of the set of sensitive cell lines. The limma package was used as previously described to perform the statistical comparison.

[1] = HCC1187, cell line HCC1187, breast
[2] = HCC1954, cell line HCC1954, breast
[3] = HCT-15, cell line HCT-15, large_intestine
[4] = HCT-116, cell line HCT 116, large_intestine
[5] = HEC-1-A, cell line HEC-1-A, endometrium
[6] = HPBALL, cell line HPB-ALL, haematopoietic_and_lymphoid_tissue
[7] = Hs 294T, cell line Hs 294T, skin
[8] = Hs 695T, cell line Hs 695T, skin
[9] = KYSE-150, KYSE-150 (oesophagus)
[10] = L-363, L-363 (haematopoietic_and_lymphoid_tissue)
[11] = LN-18, LN-18 (central_nervous_system)
[12] = LN-229, LN-229 (central_nervous_system)
[13] = LS180, LS 180 (large_intestine)
[14] = LS-411N, LS411N (large_intestine)
[15] = MC116, MC116 (haematopoietic_and_lymphoid_tissue)
[16] = MIA PaCa-2, MIA PaCa-2 (pancreas)

CC(C)[C@@]12C[C@@H](O)[C@@](C)(O1)[C@@H]1CC[C@@H](C)[C@H]1[C@@H]2OC(=O)/C=C/c1ccccc1 [Englerin B]
pIC50 (HCC1143, cell line HCC1143): < 4.52 | pIC50 [1]: 4.86 | pEC50 [1]: 5.09 | pIC50 (HCC1395, cell line HCC1395, breast): < 4.52 | pIC50 (HCC1395, cell line HCC1395): < 4.52 | pIC50 (HCC1419, cell line HCC1419, breast): 4.60 | pIC50 (HCC1428, cell line HCC1428, breast): < 4.52 | pIC50 (HCC1428, cell line HCC1428): < 4.52 | pIC50 (HCC1569, cell line HCC1569, breast): 4.54 | pIC50 (HCC1806, cell line HCC1806, breast): < 4.52 | pIC50 (HCC1806, cell line HCC1806): < 4.52 | pIC50 (HCC1937, cell line HCC1937, breast): 4.54 | pIC50 [2]: 4.86 | pEC50 [2]: 4.95 | pEC50 (HCC1954, cell line HCC1954): 4.95 | pIC50 (HCC2218, cell line HCC2218, breast): < 4.52 | pIC50 (HCC2218, cell line HCC2218): < 4.52 | pIC50 [3]: < 4.52 | pEC50 [3]: 4.98 | pIC50 (HCT-15, cell line HCT-15): < 4.52 | pIC50 [4]: < 4.52 | pEC50 [4]: 5.09 | pIC50 (HCT-116, cell line HCT 116): < 4.52 | pIC50 [5]: < 4.52 | pEC50 [5]: 4.78 | pIC50 (HEC-1-A, cell line HEC-1-A): < 4.52 | pIC50 (HEL 92.1.7, cell line HEL 92.1.7, haematopoietic_and_lymphoid_tissue): 4.62 | pIC50 (HGC-27, cell line HGC-27, stomach): 4.96 | pIC50 (HMCB, cell line HMCB, skin): < 4.52 | pEC50 (HMCB, cell line HMCB, skin): 4.73 | pIC50 (HMCB, cell line HMCB): < 4.52 | pEC50 (HMCB, cell line HMCB): 4.73 | pIC50 (HPBALL, cell line HPB-ALL (haematopoietic_and_lymphoid_tissue, acute_lymphoblastic_T_cell_leukaemia)): 4.76 | pIC50 [6]: 4.76 | pEC50 [6]: 4.93 | pIC50 (HRT-18, cell line HRT-18, large_intestine): 4.70 | pIC50 (HT55, cell line HT55, large_intestine): < 4.52 | pIC50 (HT55, cell line HT55): < 4.52 | pIC50 (HT-29, cell line HT-29, large_intestine): 4.72 | pIC50 (HT-144, cell line HT-144, skin): < 4.52 | pIC50 (HT-144, cell line HT-144): < 4.52 | pIC50 (HT-1080, cell line HT-1080, soft_tissue): < 4.52 | pIC50 (HT-1080, cell line HT-1080): < 4.52 | pIC50 (HT-1376, cell line HT-1376, urinary_tract): < 4.52 | pIC50 (HT-1376, cell line HT-1376): < 4.52 | pIC50 [7]: < 4.52 | pEC50 [7]: 4.65 | pIC50 (Hs 294T, cell line Hs 294T): < 4.52 | pIC50 [8]: < 4.52 | pEC50 [8]: 4.66 | pIC50 (Hs 695T, cell line Hs 695T): < 4.52 | pIC50 (Hs-578T, cell line Hs 578T, breast): < 4.52 | pIC50 (Hs-578T, cell line Hs 578T): < 4.52 | pIC50 (HuH-1, cell line huH-1, liver): < 4.52 | pEC50 (HuH-1, cell line huH-1, liver): 5.12 | pIC50 (HuH-1, huH-1 (liver)): < 4.52 | pIC50 (HuP-T3, cell line HUP-T3, pancreas): < 4.52 | pIC50 (HuP-T3, cell line HUP-T3): < 4.52 | pIC50 (IGR-1, IGR-1 cells): < 4.52 | pIC50 (IGR-1, cell line IGR-1, skin): < 4.52 | pIC50 (IGR-37, cell line IGR-37, skin): 4.61 | pIC50 (IGROV-1, IGROV1 cells): < 4.52 | pIC50 (IGROV-1, cell line IGROV1, ovary): < 4.52 | pIC50 (IMR-32, IMR-32): 4.62 | pEC50 (IMR-32, IMR-32): 4.62 | pIC50 (IMR-32, IMR-32 cells): 4.62 | pEC50 (IMR-32, IMR-32 cells): 4.62 | pIC50 (IPC-298, IPC-298): < 4.52 | pEC50 (IPC-298, IPC-298): 5.98 | pIC50 (IPC-298, cell line IPC-298): < 4.52 | pIC50 (Ishikawa, Ishikawa (Heraklio) 02 ER- cells): < 4.52 | pIC50 (Ishikawa, Ishikawa (Heraklio) 02 ER-): < 4.52 | pIC50 (J82, J82): < 4.52 | pEC50 (J82, J82): 4.70 | pIC50 (JIMT-1, JIMT-1): < 4.52 | pIC50 (JIMT-1, JIMT-1 cells): < 4.52 | pIC50 (JJN-3, JJN-3): < 4.52 | pIC50 (JJN-3, cell line JJN-3): < 4.52 | pIC50 (JVM-2, JVM-2): 4.68 | pEC50 (JVM-2, JVM-2): 4.68 | pIC50 (JVM-2, JVM-2 cells): 4.68 | pEC50 (JVM-2, JVM-2 cells): 4.68 | pIC50 (JVM-3, JVM-3): < 4.52 | pIC50 (JVM-3, cell line JVM-3): < 4.52 | pIC50 (JeKo-1, JeKo-1): 5.09 | pEC50 (JeKo-1, JeKo-1): 5.12 | pEC50 (JeKo-1, JeKo-1 cells): 5.12 | pIC50 (Jurkat): 4.79 | pIC50 (K562, K-562): < 4.52 | pEC50 (K562, K-562): 5.02 | pIC50 (K562, cell line K-562): < 4.52 | pIC50 (KARPAS-299, KARPAS-299): 4.88 | pEC50 (KARPAS-299, KARPAS-299): 4.90 | pIC50 (KARPAS-422, KARPAS-422): 4.94 | pEC50 (KARPAS-422, KARPAS-422): 4.94 | pIC50 (KARPAS-422, KARPAS-422 cells): 4.94 | pEC50 (KARPAS-422, KARPAS-422 cells): 4.94 | pEC50 (KATO III, cell line KATO III): 4.73 | pIC50 (KATO III): 4.71 | pEC50 (KATO III): 4.73 | pIC50 (KCL-22, KCL-22): 4.87 | pEC50 (KCL-22, KCL-22): 4.89 | pIC50 (KCL-22, KCL-22 cells): 4.87 | pEC50 (KCL-22, KCL-22 cells): 4.89 | pIC50 (KLE): < 4.52 | pEC50 (KLE): 4.95 | pIC50 (KM12, KM12): < 4.52 | pIC50 (KM12, KM12 cells): < 4.52 | pIC50 (KMS-11, KMS-11): 4.87 | pEC50 (KMS-11, KMS-11): 4.88 | pEC50 (KMS-11, KMS-11 cells): 4.88 | pIC50 (KMS-12-BM, KMS-12-BM cells): 4.60 | pEC50 (KMS-12-BM, KMS-12-BM cells): 4.60 | pIC50 (KMS-12-BM): 4.60 | pEC50 (KMS-12-BM): 4.60 | pIC50 (KNS-62, KNS-62): < 4.52 | pIC50 (KNS-62, KNS-62 cells): < 4.52 | pIC50 (KU812, KU812): 5.06 | pEC50 (KU812, KU812): 4.88 | pEC50 (KU812, KU812 cells): 4.88 | pIC50 (KYSE-30, KYSE-30 (oesophagus)): < 4.52 | pIC50 (KYSE-70, KYSE-70 (oesophagus)): 4.55 | pIC50 [9]: < 4.52 | pEC50 [9]: 4.92 | pIC50 (KYSE-270, KYSE-270 (oesophagus)): < 4.52 | pIC50 (KYSE-270, cell line KYSE-270): < 4.52 | pIC50 (KYSE-410, KYSE-410 (oesophagus)): 4.66 | pIC50 (KYSE-450, KYSE-450 (oesophagus)): < 4.52 | pIC50 (KYSE-450, KYSE-450 cells): < 4.52 | pIC50 (KYSE-510, KYSE-510 (oesophagus)): < 4.52 | pIC50 (KYSE-520, KYSE-520 (oesophagus)): 4.64 | pIC50 [10]: 4.73 | pEC50 [10]: 4.56 | pIC50 (LAMA-84, LAMA-84 (haematopoietic_and_lymphoid_tissue)): < 4.52 | pIC50 (LAMA-84, LAMA-84 cells): < 4.52 | pIC50 (LCLC-97TM1, LCLC-97TM1 (lung)): < 4.52 | pIC50 (LCLC-97TM1, LCLC-97TM1 cells): < 4.52 | pIC50 (LCLC-103H, LCLC-103H (lung)): < 4.52 | pIC50 (LCLC-103H, LCLC-103H cells): < 4.52 | pIC50 [11]: 4.86 | pEC50 [11]: 4.88 | pEC50 (LN-18, LN-18 cells): 4.88 | pIC50 [12]: < 4.52 | pEC50 [12]: 4.66 | pIC50 (LOX IMVI, LOX IMVI (skin)): < 4.52 | pIC50 (LOX IMVI, LOX IMVI cells): < 4.52 | pIC50 (LP-1, LP-1 cells): 4.73 | pEC50 (LP-1, LP-1 cells): 4.73 | pIC50 [13]: < 4.52 | pEC50 [13]: 5.01 | pIC50 (LS180, LS 180 cells): < 4.52 | pEC50 (LS180, LS 180 cells): 5.01 | pIC50 [14]: 4.79 | pEC50 [14]: 4.79 | pIC50 (LXF-289, LXF-289 (lung)): < 4.52 | pIC50 (LoVo, LoVo (large_intestine)): < 4.52 | pEC50 (LoVo, LoVo (large_intestine)): 4.90 | pIC50 (Lu-65, LU65 (lung)): < 4.52 | pIC50 (Lu-99, LU99 (lung)): 4.57 | pEC50 (Lu-99, LU99 (lung)): 4.89 | pIC50 [15]: 4.85 | pEC50 [15]: 4.85 | pIC50 (MCF7, MCF7 (breast)): 4.86 | pEC50 (MCF7, MCF7 (breast)): 4.97 | pIC50 (MCF7, MCF7 cells): 4.86 | pEC50 (MCF7, MCF7 cells): 4.97 | pIC50 (MDA-MB-175-VII, MDA-MB-175-VII (breast)): < 4.52 | pIC50 (MDA-MB-231, MDA-MB-231 (breast)): < 4.52 | pIC50 (MDA-MB-231, cell line MDA-MB-231 (breast, NS)): < 4.52 | pIC50 (MDA-MB-415, MDA-MB-415 (breast)): < 4.52 | pIC50 (MDA-MB-436, MDA-MB-436 (breast)): < 4.52 | pIC50 (MDA-MB-453, MDA-MB-453 (breast)): 4.74 | pIC50 (MDA-MB-468, MDA-MB-468 (breast)): < 4.52 | pIC50 (MDA-MB-468, MDA-MB-468 cells): < 4.52 | pIC50 (MEC1, MEC-1 (haematopoietic_and_lymphoid_tissue)): 4.65 | pIC50 (MEG-01, MEG-01 (haematopoietic_and_lymphoid_tissue)): 4.54 | pIC50 (MEL-JUSO, MEL-JUSO (skin)): < 4.52 | pIC50 (MEL-JUSO, cell line MEL-JUSO (skin)): < 4.52 | pIC50 (MFE-296, cell line MFE-296 (endometrium)): 4.64 | pIC50 (MG-63, cell line MG-63 (bone)): < 4.52 | pIC50 (MG-63, cell line MG-63): < 4.52 | pIC50 [16]: < 4.52 | pEC50 [16]: 4.95 | pIC50 (MIA PaCa-2, cell line MIA PaCa-2 (pancreas)): < 4.52

Reference: article PMC4476799, “Englerin A Agonizes the TRPC4/C5 Cation Channels to Inhibit Tumor Cell Line Proliferation” (PLoS ONE, 2015)
